In patent US7820646B2, “Cyclized derivatives as Eg-5 inhibitors” (Novartis Vaccines and Diagnostics, Inc., priority 2007, dated 2010) one finds GI50 and IC50 data, which are given here for 13 compounds.

One assay concerns HCT-15 colon carcinoma. The experiment in a line: Inhibition of cellular proliferation in tumor cell lines (CellTiter Glo), HCT-15. The class given is cell-based. As to conditions: Homo sapiens; HCT-15, 72 hours of continuous compound exposure; read-out: Cell Base Activity GI50 HCT-15. On the procedure: (§1) Cells are plated in 96-well plates at densities of about 500 cells per well of a 96-well plate and are allowed to grow for 24 hours. The cells are then treated with various concentrations of compounds for 72 hours. Then, 100 μl of CellTiter Glo is added. CellTiter Glo is a tetrazolium-based assay using the reagent 3-(4,5-dimethylthiazol-2-yl) 5-(3-carboxymethoxyphenyl)-2-(4-sulfophenyl)-2H-tetrazolium (MTS) (U.S. Pat. No. 5,185,450) (see Promega product catalog #G3580, CellTiter 96 Aqueous One Solution Cell Proliferation Assay). The cells are then incubated in the dark for 30 minutes. The amount of luminescence is determined for each well using a Walloc Trilux plate reader, which correlates with the number of cells per well. The number of viable cells in the wells that receive only DMSO (0.5%) serve as an indication of 0% inhibition, while wells without cells serve as 100% inhibition of cell growth. The compound concentration that results in a 50% growth inhibition (GI50) is determined graphically from sigmoidal dose-response curves of log-transformed dose values versus cell counts (percent of control) at 72 hours of continuous compound exposure.
(§2) The cell lines used are listed below.
(§3) The cell proliferation assay is performed as described above.

The subject of assay [1] is KB8.5 (KB85 - p-glycoprotein associated multi-drug resistant cell line). The experiment in a line: Inhibition of cellular proliferation in tumor cell lines (CellTiter Glo), KB8.5. Type of assay: cell-based. The following applies: KB8.5, 72 hours of continuous compound exposure; read-out: Cell Base Activity GI50 KB8.5. The procedure:
as §1, §2, §3
A general note: In ATP-based viability assays light output follows the ATP content of the culture.

Assay [2] concerns the target T1, motor domain of human KSP (Eg 5, KNSL1) (Homo sapiens, UniProt P52732).
T1 construct: KSP motor protein (i.e., the KSP motor domain); made in house
T1 sequence (P52732 18-359 limits assumed): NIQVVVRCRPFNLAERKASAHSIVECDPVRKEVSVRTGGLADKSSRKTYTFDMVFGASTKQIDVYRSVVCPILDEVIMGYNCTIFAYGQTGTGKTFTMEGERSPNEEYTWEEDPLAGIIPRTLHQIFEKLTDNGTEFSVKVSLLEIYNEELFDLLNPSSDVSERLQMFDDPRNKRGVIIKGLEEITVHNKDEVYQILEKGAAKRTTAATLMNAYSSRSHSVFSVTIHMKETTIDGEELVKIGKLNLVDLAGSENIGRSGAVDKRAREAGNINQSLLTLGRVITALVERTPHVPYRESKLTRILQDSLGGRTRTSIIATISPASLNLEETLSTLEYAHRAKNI
Description: Assay for determining KSP activity (microtubule-stimulated ATPase, Biomol Green). The following applies: KSP motor domain 45 nM, microtubules 35 μg/mL, 1 hour at RT; read-out: Biochemical Activity IC50. From the text:
This example provides a representative in vitro assay for determining KSP activity in vitro. Purified microtubules obtained from bovine brain were purchased from Cytoskeleton Inc. (Denver, Colo., USA). The motor domain of human KSP (Eg 5, KNSL1) was cloned, expressed, and purified to greater than 95% homogeneity. Biomol Green was purchased from Affinity Research Products Ltd. (Matford Court, Exeter, Devon, United Kingdom). Microtubules and KSP motor protein (i.e., the KSP motor domain) were diluted in assay buffer (20 mM Tris-HCl (pH 7.5), 1 mM MgCl2, 10 mM DTT and 0.25 mg/mL BSA) to a final concentration of 35 μg/mL microtubules and 45 nM KSP. The microtubule/KSP mixture was then pre-incubated at 37° C. for 10 min to promote the binding of KSP to microtubules.
To each well of the testing plate (384-well plate) containing 1.25 μL of inhibitor or test compound in DMSO (or DMSO only in the case of controls) were added 25 μL of ATP solution (ATP diluted to a concentration of 300 μM in assay buffer) and 25 μL of the above-described microtubule/KSP solution. The plates were incubated at RT for 1 hour. Following incubation, 65 μL of Biomol Green (a malachite green-based dye that detects the release of inorganic phosphate) was added to each well. The plates were incubated for an additional 5-10 minutes then the absorbance at 630 nm was determined using a Victor II plate reader. The amount of absorbance at 630 nm corresponded to the amount of KSP activity in the samples. The IC50 of each inhibitor or test compound was then determined based on the decrease in absorbance at 630 nm at each concentration, via nonlinear regression using either XLFit for Excel or Prism data analysis software by GraphPad Software Inc.

Another assay has as its system parental cell line. Description: Inhibition of cellular proliferation in tumor cell lines (CellTiter Glo), KB3.1. Type of assay: cell-based. As to conditions: Homo sapiens, KB 3-1; KB3.1, 72 hours of continuous compound exposure; read-out: Cell Base Activity GI50 KB3.1. The procedure:
as §1, §2, §3

A further assay concerns HCT-116 colon carcinoma. The experiment in a line: Inhibition of cellular proliferation in tumor cell lines (CellTiter Glo), HCT-116. The class given is cell-based. The following applies: Homo sapiens; HCT-116, 72 hours of continuous compound exposure; read-out: Cell Base Activity GI50 HCT-116. The procedure:
as §1, §2, §3

Broadly, the GI50 is the concentration that inhibits growth by half. In general, IC50 refers to the concentration that inhibits the measured activity by half. As for `CC(C)(C)[C@H](c1nc(-c2ccccc2)cn1Cc1ccccc1)N1C[C@@H](CN)OCC1=O` [Compound 7, (6R)-6-(aminomethyl)-4-[(1R)-1-(1-benzyl-4-phenyl-1H-imidazol-2-yl)-2,2-dimethylpropyl]morpholin-3-one], the concentration for 50% growth inhibition (GI50) (in the assay on HCT-15 colon carcinoma; in assay [1]; in the assay with parental cell line; with HCT-116 colon carcinoma) was 100 to 1000 nM in each case. Further, the IC50 in assay [2] is no more than 100 nM.
For `CC(C)(C)[C@H](c1nc(-c2ccccc2)cn1Cc1ccccc1)N1C[C@@H](CN)COCC1=O` [Compound 25, (6R)-6-(aminomethyl)-4-[(1R)-1-(1-benzyl-4-phenyl-1H-imidazol-2-yl)-2,2-dimethylpropyl]-1,4-oxazepan-3-one], the concentration for 50% growth inhibition (GI50) with HCT-15 colon carcinoma was 100 to 1000 nM; in assay [1], 100 to 1000 nM; in the assay on parental cell line, no more than 100 nM; in the assay on HCT-116 colon carcinoma it was no more than 100 nM. In assay [2], the 50% inhibitory concentration (IC50) was no more than 100 nM.
Take `CC(C)[C@H](c1nc(-c2cccc(Cl)c2)cn1Cc1ccccc1)N1C[C@H](CN)OCC1=O` [Compound 9, (6S)-6-(aminomethyl)-4-{(1R)-1-[1-benzyl-4-(3-chlorophenyl)-1H-imidazol-2-yl]-2-methylpropyl}morpholin-3-one]: the 50% growth inhibitory concentration (GI50) in the assay on HCT-15 colon carcinoma is 100 to 1000 nM; in assay [1] it was greater than 1000 nM; in the assay with parental cell line, 100 to 1000 nM; in the assay on HCT-116 colon carcinoma, 100 to 1000 nM. Moreover, the IC50 in assay [2] is greater than 1000 nM.
For the compound `C[C@H]1O[C@H](CN)CN([C@@H](c2nc(-c3cccc(F)c3)cn2Cc2ccccc2)C(C)(C)C)C1=O` [Compound 15, (2R,6R)-6-(aminomethyl)-4-{(1R)-1-[1-benzyl-4-(3-fluorophenyl)-1H-imidazol-2-yl]-2,2-dimethylpropyl}-2-methylmorpholin-3-one], the GI50 (with HCT-15 colon carcinoma; in assay [1]; in the assay on parental cell line; in the assay with HCT-116 colon carcinoma) was greater than 1000 nM each time. Moreover, in assay [2], the half-inhibitory concentration (IC50) was 100 to 1000 nM.
With `CC(C)(C)[C@H](c1nc(-c2ccccc2)cn1Cc1ccccc1)N1C[C@H](CN)OCC1=O` [Compound 6, (6S)-6-(aminomethyl)-4-[(1R)-1-(1-benzyl-4-phenyl-1H-imidazol-2-yl)-2,2-dimethylpropyl]morpholin-3-one], the 50% growth inhibitory concentration (GI50) in the assay on HCT-15 colon carcinoma is greater than 1000 nM; in assay [1] it was greater than 1000 nM; in the assay with parental cell line, 100 to 1000 nM; in the assay with HCT-116 colon carcinoma, 100 to 1000 nM. In addition, in assay [2], the half-inhibitory concentration (IC50) fell in the range of 100 to 1000 nM.
For the compound `CC(C)(C)[C@H](c1nc(-c2ccccc2)cn1Cc1ccccc1)N1CC(CCN)OC1=O` (stereo in doubt) [Compound 1, (5R)-5-(2-aminoethyl)-3-[(1R)-1-(1-benzyl-4-phenyl-1H-imidazol-2-yl)-2,2-dimethylpropyl]-1,3-oxazolidin-2-one], the 50% growth inhibitory concentration (GI50) with HCT-15 colon carcinoma was greater than 1000 nM; in assay [1] it was greater than 1000 nM; in the assay with parental cell line it was 100 to 1000 nM; in the assay with HCT-116 colon carcinoma it was 100 to 1000 nM. In addition, the IC50 in assay [2] lay within 100 to 1000 nM.
For the compound `CC(C)(C)[C@H](c1nc(-c2cccc(F)c2)cn1Cc1ccccc1)N1C[C@@H](CN)COCC1=O` [Compound 27, (6R)-6-(aminomethyl)-4-{(1R)-1-[1-benzyl-4-(3-fluorophenyl)-1H-imidazol-2-yl]-2,2-dimethylpropyl}-1,4-oxazepan-3-one], the GI50 with HCT-15 colon carcinoma was 100 to 1000 nM; in assay [1] it was no more than 100 nM; with parental cell line, no more than 100 nM; with HCT-116 colon carcinoma it was no more than 100 nM. The half-maximal inhibitory concentration (IC50) in assay [2] was no more than 100 nM.
With `CC(C)(C)[C@H](c1nc(-c2ccccc2)cn1Cc1ccccc1)N1C[C@@H](CN)NCCC1=O` [Compound 20, (2R)-2-(aminomethyl)-4-[(1R)-1-(1-benzyl-4-phenyl-1H-imidazol-2-yl)-2,2-dimethylpropyl]-1,4-diazepan-5-one], the GI50 in the assay on HCT-15 colon carcinoma is greater than 1000 nM; in assay [1], greater than 1000 nM; in the assay on parental cell line it was 100 to 1000 nM; in the assay on HCT-116 colon carcinoma it was 100 to 1000 nM. Moreover, the IC50 in assay [2] was 100 to 1000 nM.
For `CC(C)(C)[C@H](c1nc(-c2ccccc2)cn1Cc1ccccc1)N1C[C@H](CN)NC(=O)C1=O` [Compound 17, (5S)-5-(aminomethyl)-1-[(1R)-1-(1-benzyl-4-phenyl-1H-imidazol-2-yl)-2,2-dimethylpropyl]piperazine-2,3-dione], the GI50 (in the assay on HCT-15 colon carcinoma; in assay [1]; with parental cell line; in the assay on HCT-116 colon carcinoma) was greater than 1000 nM throughout. Further, the IC50 in assay [2] is no more than 100 nM.
`CC(C)(C)[C@H](c1nc(-c2ccccc2)cn1Cc1ccccc1)N1C[C@@H](CN)OCCC1=O` [Compound 23, (2R)-2-(aminomethyl)-4-[(1R)-1-(1-benzyl-4-phenyl-1H-imidazol-2-yl)-2,2-dimethylpropyl]-1,4-oxazepan-5-one]: the 50% growth inhibitory concentration (GI50) in the assay on HCT-15 colon carcinoma is greater than 1000 nM; in assay [1], 100 to 1000 nM; with parental cell line, greater than 1000 nM; with HCT-116 colon carcinoma, 100 to 1000 nM. In addition, the IC50 in assay [2] lay in the range of 100 to 1000 nM.
On to `CC(C)(C)[C@H](c1nc(-c2cccc(F)c2)cn1Cc1cccc(F)c1)N1C[C@@H](CN)COCC1=O` [Compound 28, (6R)-6-(aminomethyl)-4-{(1R)-1-[1-(3-fluorobenzyl)-4-(3-fluorophenyl)-1H-imidazol-2-yl]-2,2-dimethylpropyl}-1,4-oxazepan-3-one], for which the 50% growth inhibitory concentration (GI50) (in the assay on HCT-15 colon carcinoma; in assay [1]; in the assay on parental cell line; in the assay with HCT-116 colon carcinoma) was no more than 100 nM in each case. Further, the IC50 in assay [2] is no more than 100 nM.
`CC(C)(C)[C@H](c1nc(-c2cccc(F)c2)cn1Cc1cccc(F)c1)N1C[C@H](CN)COCC1=O` [Compound 29, (6S)-6-(aminomethyl)-4-{(1R)-1-[1-(3-fluorobenzyl)-4-(3-fluorophenyl)-1H-imidazol-2-yl]-2,2-dimethylpropyl}-1,4-oxazepan-3-one]: the GI50 (in the assay with HCT-15 colon carcinoma; in assay [1]; in the assay on parental cell line; in the assay with HCT-116 colon carcinoma) was 100 to 1000 nM in each case. Moreover, the concentration for half-maximal inhibition (IC50) in assay [2] was no more than 100 nM.
On to `CC(C)[C@H](c1nc(-c2cccc(Cl)c2)cn1Cc1ccccc1)N1CC(CN)OC1=O` (stereo partly drawn) [Compound 3, 5-(aminomethyl)-3-{(1R)-1-[1-benzyl-4-(3-chlorophenyl)-1H-imidazol-2-yl]-2-methylpropyl}-1,3-oxazolidin-2-one], for which the GI50 (with HCT-15 colon carcinoma; in assay [1]; with parental cell line; in the assay on HCT-116 colon carcinoma) was greater than 1000 nM throughout. The IC50 in assay [2] is 100 to 1000 nM.
